Test results taken from US10274488B2, “Glycan arrays on PTFE-like aluminum coated glass slides and related methods” (Academia Sinica, priority 2008, dated 2019).

How the values were obtained:
cellulase from A. niger = assay: Enzymatic hydrolysis on the PTFE-like ACG slide with cellulase from A. niger, MS-TOF readout; type: biochemical, Aspergillus niger; conditions: reaction on the ACG slide
Description: (§1) Enzymatic hydrolysis of the immobilized poly-fluorinated cellobiose 8 (see FIG. 14) was first conducted in situ on the phosphonic acid slide surface. Three commercially available cellulases, Aspergillus niger (A. niger), Trichoderma reesei (T. reesei), and Trichoderma viride (T. viride) were prepared separately at 5 U/mL in a sodium acetate (25 mM) buffer solution (pH 5) and loaded onto the functionalized slide which has been divided into 16 wells using Fast Frame reaction chambers. For comparison, an aliquot of enzyme solution (100 μL) was added to the solution of fluorinated cellobiose (100 μL of 0.5 mM) in eppendorfs to carry out the enzymatic hydrolysis reactions in solution. After the reaction, it was transferred to the empty wells of the same slide. Each well was rinsed separately three times with de-ionized water and the slide was dried again under high vacuum before subjecting to MS-TOF analysis.
(§2) Under MS-TOF analysis, the clean background baseline allowed calculation of the percentage of hydrolyzed components for each sample. As shown in the MS-TOF results in FIG. 20, percentages of hydrolyzed products are calculated from the peak intensities of each spectrum. According to implementations of experimental data shown in FIG. 20, MS-TOF data of enzymatic hydrolysis of poly-fluorinated cellobiose in solution in FIG. 20A and immobilized on PTFE-like ACG slide in FIG. 20B. The control are the same experimental conditions run without enzymes in (a); (b), (c), and (d) are experimental conditions with the cellulase proteins from A. niger (b), T. reesei (c), and T. viride (d).
(§3) Cellulase was prepared (5 U/mL in 25 mM pH 5.05 NaOAc buffer solution). Substrate was also dissolved in NaOAc buffer solution (25 mM, pH 5.05) to give 0.5 mM substrate solution. Add 50 μL cellulase solution to 50 μL substrate solution onto the glass slide which was loaded in FAST® Frame multi-slide plate to have a 2.5 U/mL cellulase solution with 0.25 mM substrate. The well of the plate was sealed and the whole assembly was incubated in 37° C. for 18 hours. Put the slide in dry box to remove the water, and then use high vacuum to remove trace water. 100 uL water was used to rinse each well of the FAST® Frame multi-slide plate to solve and remove the salt of the buffer solution. Remove any residual water on the plate by high vacuum and then analyzed the slide by MALDI-TOF Ultra-Flex II.

cellulase from T. reesei = assay: Enzymatic hydrolysis on the PTFE-like ACG slide with cellulase from T. reesei, MS-TOF readout; type: biochemical, Trichoderma reesei; conditions: reaction on the ACG slide, pH 5
Description: as §1, §2, §3

cellulase from T. viride [1] = assay: Enzymatic hydrolysis in solution with cellulase from T. viride, MS-TOF readout; type: biochemical, Trichoderma viride; conditions: reaction in solution, pH 5
Description: as §1, §2
Cellulase was prepared (5 U/mL in 25 mM pH 5.05 NaOAc buffer solution). Substrate was also dissolved in NaOAc buffer solution (25 mM, pH 5.05) to give 0.5 mM substrate solution. Add 100 uL cellulase solution to 100 uL substrate solution in eppendorf to have a 2.5 U/mL cellulase solution with 0.25 mM substrate. This solution was incubated in 37° C. for 18 hours. Add 100 μL incubated solution onto the slide loaded in FAST® Frame. Put the slide in dry box to remove the water, and then use high vacuum to remove trace water. 100 μL water was used to rinse each well of the FAST® Frame multi-slide plate to solve and remove the salt of the buffer solution. Remove any residual water on the plate by high vacuum and then analyzed the slide by MALDI-TOF Ultra-Flex II.

cellulase from T. viride [2] = assay: Enzymatic hydrolysis on the PTFE-like ACG slide with cellulase from T. viride, MS-TOF readout; type: biochemical, Trichoderma viride; conditions: reaction on the ACG slide, pH 5
Description: as §1, §2, §3

With `O=C(NCCCCCO[C@@H]1O[C@H](CO)[C@@H](O[C@@H]2O[C@H](CO)[C@@H](O)[C@H](O)[C@H]2O)[C@H](O)[C@H]1O)OCCCC(F)(F)C(F)(F)C(F)(F)C(F)(F)C(F)(F)C(F)(F)C(F)(F)C(F)(F)F` [Compound 8, [(4,4,5,5,6,6,7,7,8,8,9,9,10,10,11,11,12,12,12-nonadecafluorododecoxycarbonyl-amino)pentyl] ß-D-cellobioside] the “Biose (un-hydrolyzed cellobiose), percentage of hydrolyzed pattern” value (shortened to “Biose … percentage of hydrolyzed pattern”) (cellulase from A. niger; pH 5) was 1%, the “F-tail, percentage of hydrolyzed pattern” value (cellulase from A. niger; pH 5) was 0/0% and the “Glucose, percentage of hydrolyzed pattern” value (“Glucose, percentage” below) (cellulase from A. niger; pH 5) was 0%. For the same molecule, the “Triose, percentage of hydrolyzed pattern” value (cellulase from A. niger; pH 5) was 0%, the “Biose … percentage of hydrolyzed pattern” value (cellulase from A. niger; pH 5, listed as cellobiose) was 100% and the “Biose … percentage of hydrolyzed pattern” value (cellulase from T. reesei) was 69%. For the same molecule, the “F-tail, percentage of hydrolyzed pattern” value (cellulase from T. reesei) was 7%, the “Glucose, percentage” value (cellulase from T. reesei) was 25% and the “Triose, percentage of hydrolyzed pattern” value (cellulase from T. reesei) was 0/0%. The “Biose … percentage of hydrolyzed pattern” value (cellulase from T. viride [1]) was 3%, the “F-tail, percentage of hydrolyzed pattern” value (cellulase from T. viride [1]) was 38% and the “Glucose, percentage” value (cellulase from T. viride [1]) was 58%. The “Triose, percentage of hydrolyzed pattern” value (cellulase from T. viride [1]) was 0/0%, the “Biose … percentage of hydrolyzed pattern” value (cellulase from T. viride [2]) was 77% and the “F-tail, percentage of hydrolyzed pattern” value (cellulase from T. viride [2]) was 6%. The “Glucose, percentage” value (cellulase from T. viride [2]) was 17% and the “Triose, percentage of hydrolyzed pattern” value (cellulase from T. viride [2]) was 0/0%.
